Data: ChEMBL document CHEMBL1201862, “PubChem BioAssay data set” (2004)
Activity calls are given as the source filed them.

Tests used:
[1] = NIH-3T3 fibroblast cytotoxicity, dose response, cytotoxicity control, cell-based, fluorescence, Alamar Blue, secondary assay (AID 2327); assay type: functional;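 note: NIH-3T3 mouse fibroblasts cultured with fluconazole at 8 µg/mL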
[2] = C. albicans growth with fluconazole, confirmation, fluorescence, retest (AID 2467); assay type: functional, cell-based
Protein skinhead-1 = target: T1, Protein skinhead-1 (Caenorhabditis elegans, UniProt P34707); assay type: functional
T1 sequence (P34707 whole entry): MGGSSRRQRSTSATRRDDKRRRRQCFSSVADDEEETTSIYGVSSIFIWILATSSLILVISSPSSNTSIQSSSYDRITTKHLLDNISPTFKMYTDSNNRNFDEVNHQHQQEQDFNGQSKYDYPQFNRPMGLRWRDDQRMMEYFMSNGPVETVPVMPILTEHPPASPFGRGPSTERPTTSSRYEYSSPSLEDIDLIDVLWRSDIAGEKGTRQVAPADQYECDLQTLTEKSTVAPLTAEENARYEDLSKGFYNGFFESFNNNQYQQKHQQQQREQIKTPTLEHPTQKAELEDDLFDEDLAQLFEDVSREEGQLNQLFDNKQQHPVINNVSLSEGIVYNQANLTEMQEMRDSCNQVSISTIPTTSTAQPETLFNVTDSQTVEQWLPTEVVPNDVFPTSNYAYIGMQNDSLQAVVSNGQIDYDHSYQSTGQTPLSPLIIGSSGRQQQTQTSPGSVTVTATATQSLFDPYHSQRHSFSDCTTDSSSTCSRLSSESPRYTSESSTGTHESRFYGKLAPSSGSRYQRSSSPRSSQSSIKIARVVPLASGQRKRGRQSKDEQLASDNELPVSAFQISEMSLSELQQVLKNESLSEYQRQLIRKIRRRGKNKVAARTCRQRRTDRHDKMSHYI

[3] = Luminescence Cell-Based Dose Confirmation HTS to Identify Activators of 5'UTR Stem-Loop Driven Alpha-Synuclein mRNA Translation in H4 Neuroglioblastoma Cells. [Related pubchem assays: 1829 (Project Summary), 1814 (Primary HTS)]; assay type: functional
[4] = Luminescence Cell-Based Dose Response HTS to Identify Activators of Luciferase Translation or Activity in H4 […] Cells. [Related pubchem assays: 1829 (Project Summary), 1814 (Primary HTS)]; assay type: functional
H4 = assay: Luminescence Cell-Based Dose Response HTS to Identify Activators of 5'UTR Stem-Loop Driven Prion Protein mRNA Translation in H4 Neuroglioblastoma Cells. [Related pubchem assays: 1829 (Project Summary), 1814 (Primary HTS)]; assay type: functional; conditions: Homo sapiens
H9c2 = assay: cells; assay type: functional, cell-based; conditions: Rattus norvegicus, H9c2, Myocardium;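 note: confirmatory concentration-response retest of ultra-high-throughput screening hits for modulation of myocardial damage; cell death induced by hydrogen peroxide oxidative stress; compound pretreatment for 60 min then peroxide exposure for 2 h; potency is for protecting the cells against peroxide damage rather than for killing them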
[5] = target: T2, RNA-binding protein pos-1 (Caenorhabditis elegans, UniProt G5EF15); assay: inhibitors of POS-1/mex-3 RNA binding, dose response, biochemical, fluorescence polarization (AID 1964);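 note: purified POS-1 fused to maltose binding protein made in E. coli; potency of compounds blocking POS-1 binding to fluorescent RNA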
T2 sequence (G5EF15 whole entry): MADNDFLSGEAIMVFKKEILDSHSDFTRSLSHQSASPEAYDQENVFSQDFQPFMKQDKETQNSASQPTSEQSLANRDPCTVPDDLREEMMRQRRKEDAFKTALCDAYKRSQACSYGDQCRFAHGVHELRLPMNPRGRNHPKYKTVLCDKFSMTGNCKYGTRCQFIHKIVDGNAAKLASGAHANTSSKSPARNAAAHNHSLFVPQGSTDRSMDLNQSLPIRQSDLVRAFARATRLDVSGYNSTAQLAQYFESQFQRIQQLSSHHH

[6] = target: T3, Zinc finger protein mex-5 (Caenorhabditis elegans, UniProt Q9XUB2); assay: MEX-5/TCR-2 RNA interaction inhibitors, dose response, biochemical, C. elegans, fluorescence polarization (AID 1960)
T3 sequence (Q9XUB2 whole entry): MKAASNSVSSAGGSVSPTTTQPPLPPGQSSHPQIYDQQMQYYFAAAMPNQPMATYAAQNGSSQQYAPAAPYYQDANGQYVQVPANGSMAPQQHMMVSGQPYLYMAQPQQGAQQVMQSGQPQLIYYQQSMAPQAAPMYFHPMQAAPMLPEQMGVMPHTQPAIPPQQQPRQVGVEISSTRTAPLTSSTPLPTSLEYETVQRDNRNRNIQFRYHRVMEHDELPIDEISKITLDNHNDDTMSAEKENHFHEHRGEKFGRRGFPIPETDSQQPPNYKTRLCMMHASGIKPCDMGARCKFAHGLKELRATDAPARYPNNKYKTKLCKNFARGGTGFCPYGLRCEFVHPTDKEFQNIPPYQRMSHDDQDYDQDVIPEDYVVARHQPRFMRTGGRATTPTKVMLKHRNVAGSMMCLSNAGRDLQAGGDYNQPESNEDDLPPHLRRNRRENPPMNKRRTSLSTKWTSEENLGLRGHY

[7] = target: T4, Corticotropin-releasing factor receptor 2/Corticotropin-releasing factor-binding protein (Homo sapiens, UniProt P24387+Q13324); assay: activators of CRF receptor 2 with binding protein – uHTS hits, confirmation (AID 602473); assay type: functional; conditions: read-out: EC50_Mean
T4 sequence (Q13324 whole entry): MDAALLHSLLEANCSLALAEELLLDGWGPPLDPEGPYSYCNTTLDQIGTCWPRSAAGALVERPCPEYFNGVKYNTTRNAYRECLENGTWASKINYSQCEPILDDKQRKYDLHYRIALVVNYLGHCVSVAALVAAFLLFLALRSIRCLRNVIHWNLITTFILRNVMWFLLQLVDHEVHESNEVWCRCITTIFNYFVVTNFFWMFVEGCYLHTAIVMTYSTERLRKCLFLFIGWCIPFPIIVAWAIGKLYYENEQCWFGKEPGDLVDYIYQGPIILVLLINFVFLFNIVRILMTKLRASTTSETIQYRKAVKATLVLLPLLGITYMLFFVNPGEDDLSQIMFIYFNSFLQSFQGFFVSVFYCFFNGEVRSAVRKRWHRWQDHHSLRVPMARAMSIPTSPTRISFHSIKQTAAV
T4 sequence (P24387 whole entry): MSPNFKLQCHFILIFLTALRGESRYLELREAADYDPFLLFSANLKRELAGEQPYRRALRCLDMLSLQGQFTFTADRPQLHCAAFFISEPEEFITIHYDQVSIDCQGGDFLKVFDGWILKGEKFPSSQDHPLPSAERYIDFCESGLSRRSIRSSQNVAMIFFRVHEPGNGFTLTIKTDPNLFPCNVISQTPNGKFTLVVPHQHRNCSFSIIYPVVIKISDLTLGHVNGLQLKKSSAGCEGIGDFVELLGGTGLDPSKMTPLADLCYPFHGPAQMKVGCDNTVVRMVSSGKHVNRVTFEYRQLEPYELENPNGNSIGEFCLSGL

Cytochrome P450 2C19 = Cytochrome P450 2C19 (Homo sapiens, UniProt P33261); assay: Cytochrome panel assay with activity outcomes. Panel member name: p450-cyp2c19 Compounds with AC50 equal or less than 10 uM are considered active; assay type: functional; conditions: read-out: AC50
Cytochrome P450 2C9 = Cytochrome P450 2C9 (Homo sapiens, UniProt P11712)
[8] = Shn3 3'UTR reporter inhibitors, dose response, cell-based, Clone20 osteoblasts, firefly luciferase, cherry-picked (AID 624132); assay type: functional;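 note: firefly luciferase luminescence from reporter carrying the Shn3 3'UTR in osteoblasts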
[9] = microbe, parasite or virus in culture; assay type: functional; conditions: Mycobacterium tuberculosis
[10] = inhibitors of intracellular T. cruzi replication, confirmation, NIH3T3 host cells, beta-gal luminescence (AID 2044); assay type: functional, cell-based;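 note: intracellular parasites grown in NIH/3T3 mouse fibroblasts as host cells; luminescent beta-galactosidase reporter signal from transgenic T. cruzi replicating inside host cells; inhibitors lower the luminescence signal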
[11] = cytotoxicity toward NIH3T3 fibroblasts, dose response, counter-screen, cell-based, ATP luminescence, mouse fibroblasts (AID 2010); assay type: functional;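 note: cells exposed to compound for about 90 hours before reading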
[12] = HEp-2 cell cytotoxicity, dose response, cytotoxicity control for RSV inhibitor project, HTS (AID 2410); assay type: functional; conditions: human respiratory syncytial virus

Chain of Cytochrome P450 2C9 (P11712 whole entry): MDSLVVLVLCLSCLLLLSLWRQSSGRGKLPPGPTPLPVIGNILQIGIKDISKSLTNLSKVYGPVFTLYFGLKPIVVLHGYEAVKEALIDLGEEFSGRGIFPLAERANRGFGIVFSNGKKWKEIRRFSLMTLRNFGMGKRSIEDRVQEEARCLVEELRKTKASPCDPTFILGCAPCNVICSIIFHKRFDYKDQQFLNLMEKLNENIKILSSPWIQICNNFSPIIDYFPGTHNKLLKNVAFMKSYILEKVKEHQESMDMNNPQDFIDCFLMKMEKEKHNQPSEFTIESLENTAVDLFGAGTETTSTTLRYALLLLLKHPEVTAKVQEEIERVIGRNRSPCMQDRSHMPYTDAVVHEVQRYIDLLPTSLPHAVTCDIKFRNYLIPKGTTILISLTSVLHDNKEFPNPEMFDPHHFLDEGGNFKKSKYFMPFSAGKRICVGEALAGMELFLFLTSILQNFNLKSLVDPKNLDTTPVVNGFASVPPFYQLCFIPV
Chain of Cytochrome P450 2C19 (P33261 whole entry): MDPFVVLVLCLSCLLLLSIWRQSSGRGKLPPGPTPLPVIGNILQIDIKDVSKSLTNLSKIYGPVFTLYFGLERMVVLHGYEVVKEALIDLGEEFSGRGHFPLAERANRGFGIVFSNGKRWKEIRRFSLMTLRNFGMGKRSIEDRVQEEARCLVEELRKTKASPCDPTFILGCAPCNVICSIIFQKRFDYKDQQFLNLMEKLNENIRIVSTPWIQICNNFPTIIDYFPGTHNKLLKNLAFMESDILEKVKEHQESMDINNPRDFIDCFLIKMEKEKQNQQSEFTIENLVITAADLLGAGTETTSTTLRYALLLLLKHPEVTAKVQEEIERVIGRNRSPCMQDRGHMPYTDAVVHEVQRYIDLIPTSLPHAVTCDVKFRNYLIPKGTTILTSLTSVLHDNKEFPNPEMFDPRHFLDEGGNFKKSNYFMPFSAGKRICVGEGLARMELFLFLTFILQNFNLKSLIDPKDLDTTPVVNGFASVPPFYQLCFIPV

With `O=C(O)c1cnc(-c2ccccc2)nc1Sc1ccccc1Cl` the EC50 [1] was > 160 µM (inactive) and the EC50 [2] was 0.356 µM (active).
With `CC(=O)Nc1cc(C(F)(F)F)ccc1OCC1CCCO1` (configuration not stated) the IC50 (Protein skinhead-1) was > 100 µM (inactive).
For `Oc1oc(-c2ccccc2Br)nc1/C=N/c1ccccn1`, the EC50 [3] was 59.1 µM (active), the EC50 [4] was 13 µM (active) and the EC50 (H4) was > 120 µM (not active).
In the case of `Cc1ccc(-c2nnc(O)c3ccccc23)cc1S(=O)(=O)Nc1ccccc1`, the IC50 (H9c2) is reported as 21.3 µM (active).
For `O=[N+]([O-])c1ccc(S(=O)(=O)Nc2nc3ccccc3nc2Nc2ccccc2)cc1`, the EC50 [1] was > 150 µM (inactive) and the EC50 [2] was 2.06 µM (active).
In the case of `COc1ccc(OC)c(/C=c2\sc3nc(-c4cccs4)nn3c2=O)c1`, the EC50 [5] is reported as > 300 µM (not active), the EC50 [6] is reported as > 300 µM (inconclusive) and the EC50 [7] is reported as 6.32 µM (active).
With `O=C(/C=C/c1cccs1)c1ccc(Br)cc1` the IC50 (Protein skinhead-1) was 73.8 µM (inactive).
With `Fc1ccc2c(c1)C1C=CCC1C(c1cc3c(cc1Br)OCO3)N2` (configuration not stated) the EC50 [5] was > 300 µM (not active), the EC50 [6] was > 300 µM (not active) and the AC50 (Cytochrome P450 2C19) was 0.316 µM (inconclusive). For the same compound, the AC50 (Cytochrome P450 2C9) was 1.78 µM (inconclusive).
With `C[C@]12CC[C@H](O)CC1=CCC1C2CC[C@@]2(C)C1CCC21OCCO1` (some centres not stated) the AC50 [8] was 27.3 µM (active).
For `COc1cccc2cc(-c3cc(=O)oc4ccc(OCC(C)=O)cc34)oc12`, the IC50 (H9c2) was > 79 µM (inactive).
In the case of `c1ccc(-c2nc(-n3ccnc3)nc(-n3ccnc3)n2)cc1`, the IC50 (H9c2) is reported as > 79 µM (inactive).
With `N#C/C(=C/c1ccc(Sc2nc3ccccc3[nH]2)o1)c1cccc(Br)c1` the CC50 [9] was > 40 µM (active).
With `O=C(Nc1ccc(Br)c(Cl)c1)c1ccco1` the IC50 (Protein skinhead-1) was 14.2 µM (active).
With `O=C(CCc1nc(O)c2ccccc2n1)Nc1ccc(F)c([N+](=O)[O-])c1` the IC50 (H9c2) was > 79 µM (inactive).
In the case of `O=C(OCC(=O)N1CCc2ccccc21)c1nnc(O)c2ccccc12`, the IC50 (H9c2) is reported as 12.3 µM (active).
For `O=C(CCC(=O)N1CCN(C2CCCCC2)CC1)Nc1nnc(C(F)(F)F)s1`, the IC50 (H9c2) was > 79 µM (inactive).
For `O=C(C1=NNCC1c1ccccc1)C1OC1c1ccccc1` (configuration not stated), the EC50 [3] was 20.8 µM (active), the EC50 [4] was 13.5 µM (active) and the EC50 (H4) was > 120 µM (not active).
With `COc1cc(/C=C2\C=CC(=O)O2)cc(OC)c1` the EC50 [3] was 13.3 µM (active), the EC50 [4] was 12.2 µM (active) and the EC50 (H4) was > 120 µM (not active).
For `Cc1ccc(NC(=O)CNC(=O)c2cccs2)cc1S(=O)(=O)Nc1ccc(Cl)cc1`, the IC50 (Protein skinhead-1) was > 100 µM (inactive).
For `Cc1onc(-c2ccccc2)c1C(=O)NN=C(N)COc1ccc(Cl)cc1`, the EC50 [1] was > 150 µM (inactive) and the EC50 [2] was > 38 µM (not active).
In the case of `CCOC(=O)C1CCN(c2cc3c(cc2NC(=O)c2ccc(F)cc2)n(C)c(=O)n3C)CC1`, the IC50 (H9c2) is reported as 16.7 µM (active).
With `NS(=O)(=O)c1ccc(N/C=C2/C(=O)N(c3nccs3)C(=O)c3ccccc32)cc1` the IC50 (H9c2) was > 79 µM (inactive).
In the case of `Fc1ccccc1-c1nc(-c2ccc(Cl)cc2)no1`, the IC50 (Protein skinhead-1) is reported as > 100 µM (inactive).
For `Cc1nc(N2CCN(S(=O)(=O)c3cccc4nonc34)CC2)c2c3c(sc2n1)CCCC3`, the IC50 (H9c2) was > 79 µM (inactive).
For `CCCCn1c(N)c(Br)c(=O)[nH]c1=O`, the IC50 (H9c2) was > 79 µM (inactive).
For `O=C(NN=C(S)Nc1cccc(C(F)(F)F)c1)c1ccc(Cl)cc1Cl`, the EC50 [1] was > 160 µM (inactive), the EC50 [2] was 4.65 µM (active) and the EC50 [7] was > 53 µM (inactive).
With `O=C1C(Cl)=C(N2CCOCC2)C(=O)N1CCc1ccccc1` the EC50 [3] was 0.656 µM (active), the EC50 [4] was 1.56 µM (active) and the EC50 (H4) was > 120 µM (not active).
For `C/C(=N\NC(=O)c1nnn(-c2nonc2N)c1CSc1ccc(C)cc1)c1cccnc1`, the IC50 (H9c2) was > 79 µM (inactive).
In the case of `CCCc1ccc(OCC(=O)Nc2cc(S(=O)(=O)CC)ccc2O)cc1`, the EC50 [1] is reported as > 160 µM (inactive) and the EC50 [2] is reported as 1.45 µM (active).
In the case of `COc1ccccc1Nc1nc(N)nc(CCl)n1`, the CC50 [9] is reported as 1.88 µM (active).
In the case of `COc1ccc(NN=Nc2ccc([N+](=O)[O-])cc2)cc1`, the EC50 [3] is reported as 1.01 µM (active), the EC50 [4] is reported as 0.485 µM (active) and the EC50 (H4) is reported as 64.4 µM (active).
In the case of `Cc1c(Cl)cccc1Nc1c([N+](=O)[O-])nn(-c2ccccc2)[n+]1[O-]`, the IC50 (Protein skinhead-1) is reported as > 100 µM (inactive).
For `O=C(NCc1ccc2c(c1)OCO2)c1nnc(O)c2ccccc12`, the IC50 (H9c2) was > 79 µM (inactive).
In the case of `CCN1C(=O)/C(=C/N(C)c2ccccc2)OC1=S`, the IC50 (Protein skinhead-1) is reported as 76.6 µM (inactive).
In the case of `CCSc1ccc2cc(OC)ccc2[n+]1CC`, the EC50 [1] is reported as > 160 µM (inactive), the EC50 [2] is reported as > 38 µM (not active) and the EC50 [10] is reported as 6.53 µM (active). The EC50 [11] was > 60 µM (not active).
For `Cc1cccc(NC(S)=NNC(=O)c2csc(C(C)C)c2)c1`, the EC50 [1] was > 150 µM (inactive), the CC50 [12] was 27.1 µM (active) and the EC50 [3] was 20.3 µM (active). The EC50 [4] was 36.9 µM (active).
For `O=c1cc(/C=C/c2ccccc2)oc2ccccc12`, the CC50 [9] was > 40 µM (active) and the IC50 (Protein skinhead-1) was 78.9 µM (inactive).
In the case of `CCOc1ccc(NC(=O)CN(C)C(=O)Cc2nnc(O)c3ccccc23)cc1OCC`, the IC50 (H9c2) is reported as > 79 µM (inactive).
With `CCOC(=O)C1CCN(C(=O)CSCc2nc(-c3ccc(OCC)cc3)oc2C)CC1` the CC50 [9] was > 40 µM (active).
